We go through one compound from patent US20240083920A1, “LOW MOLECULAR WEIGHT CORROLE COMPOSITIONS” (TECHNION RESEARCH & DEVELOPMENT FOUNDATION LTD, priority 2021, published 2024).

This data set is described as follows: Stability in solution / on storage. Conditions: in solution / ambient conditions.

Turning to `C1=Cc2cc3ccc([nH]3)c3ccc(cc4ccc(cc1n2)[nH]4)[nH]3` [H3(cor)], the stability entry is “stability was limited due to ambient humidity and light conditions”.
